The values below are quoted from earlier work in patent US20120070506A1, “Animal Treatment” (BOMAC RESEARCH LIMITED, priority 2009, published 2012).

The test system of the data set is animals. Conditions: veterinary treatment.

Turning to `CC(C(=O)O)c1ccc2c(c1)[nH]c1ccc(Cl)cc12` (stereo not drawn) [carprofen, 6-chloro-alpha-methyl-9H-carbozole-2-acetic acid], the known adverse effect entry is listed as “hepatotoxicity (acute hepatic necrosis) or other liver damage”.
